# Experimental data published in patent US7709516B2, “Helix 12 directed non-steroidal antiandrogens” (Endorecherche, Inc., priority 2005, dated 2010).
# Like-named read-outs stand apart in the source and are kept apart here.
# What was measured:
# [1] = system: rat prostate, seminal vesicle, levator ani muscle; assay: Systemic antiandrogenic activity in orchidectomized immature male rats with DHT implant; format: in vivo; settings: Rattus norvegicus, 168 h, rat +DHT, 0.5 mg/animal daily 7 days
# Human Androgen Receptor = target: T1, Human Androgen Receptor (Homo sapiens, UniProt P10275); assay: Androgen receptor binding assay ([3H]R1881, HAP) in cytosol of HEK-293 cells transfected with hAR; settings: relative to R1881 = 100, transfected cells
# T1 sequence (P10275 1-920): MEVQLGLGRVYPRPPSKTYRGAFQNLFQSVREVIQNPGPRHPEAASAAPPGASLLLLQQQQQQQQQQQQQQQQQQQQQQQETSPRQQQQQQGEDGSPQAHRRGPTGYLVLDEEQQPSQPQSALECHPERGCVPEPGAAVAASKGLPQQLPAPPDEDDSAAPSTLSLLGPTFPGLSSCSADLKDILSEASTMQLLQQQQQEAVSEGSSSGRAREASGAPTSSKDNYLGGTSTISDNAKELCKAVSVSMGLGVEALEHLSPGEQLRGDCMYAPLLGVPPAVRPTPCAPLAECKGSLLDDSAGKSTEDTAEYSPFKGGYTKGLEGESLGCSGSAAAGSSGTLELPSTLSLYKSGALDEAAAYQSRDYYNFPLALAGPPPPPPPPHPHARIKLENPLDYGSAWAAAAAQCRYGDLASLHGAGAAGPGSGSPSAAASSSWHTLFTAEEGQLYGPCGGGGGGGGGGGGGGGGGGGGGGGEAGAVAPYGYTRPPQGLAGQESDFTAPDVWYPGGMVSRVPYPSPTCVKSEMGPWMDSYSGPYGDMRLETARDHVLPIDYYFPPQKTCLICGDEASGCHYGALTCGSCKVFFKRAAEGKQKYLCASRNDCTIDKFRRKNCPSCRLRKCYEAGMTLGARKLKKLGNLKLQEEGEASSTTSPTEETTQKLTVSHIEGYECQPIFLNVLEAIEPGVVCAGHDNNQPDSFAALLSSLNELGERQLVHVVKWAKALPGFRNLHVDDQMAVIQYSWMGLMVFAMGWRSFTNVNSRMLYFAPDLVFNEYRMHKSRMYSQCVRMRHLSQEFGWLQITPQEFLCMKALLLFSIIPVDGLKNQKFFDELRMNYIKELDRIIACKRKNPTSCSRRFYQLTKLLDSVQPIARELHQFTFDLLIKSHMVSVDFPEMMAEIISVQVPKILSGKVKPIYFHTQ
# [2] = system: Shionogi mouse mammary carcinoma cells; assay: Androgenic/antiandrogenic activity: inhibition of DHT-stimulated Shionogi cell number; format: cell-based; settings: DHT-stimulated Shionogi cell number; for IC50: Mus musculus
# [3] = Prostate cell, po, read-out: Lev Ani % inhibition, Table 1, p.o, levator ani
# [4] = Prostate cell, po, read-out: SV % inhibition, Table 1, p.o, seminal vesicle
# [5] = po, read-out: Prostate % inhibition, Table 1, p.o
# [6] = read-out: Shionogi Antiandrogenic Activity IC50, Table 1
# [7] = read-out: Lev Ani % inhibition, Table 2, s.c. or p.o. (route not marked), levator ani
# [8] = read-out: Prostate % inhibition, Table 2, s.c. or p.o. (route not marked)
# [9] = read-out: SV % inhibition, Table 2, s.c. or p.o. (route not marked), seminal vesicle
# [10] = read-out: Shionogi Antiandrogenic Activity IC50, Table 2
SMILES,"inhibition in vivo at 0.5 mg [1, 3]","inhibition in vivo at 0.5 mg [1, 4]","inhibition in vivo at 0.5 mg [1, 5]",Human Androgen Receptor Binding (%) RBA R1881 = 100 (Human Androgen Receptor; Table 1),"IC50 [2, 6]","inhibition in vivo at 0.5 mg [1, 7]","inhibition in vivo at 0.5 mg [1, 8]","inhibition in vivo at 0.5 mg [1, 9]",Human Androgen Receptor Binding (%) RBA R1881 = 100 (Human Androgen Receptor; Table 2),"IC50 [2, 10]",Shionogi Antiandrogenic Activity IC50 ([2]; Table 1)
CC(=O)Nc1ccc(OCCCN2C(=S)N(c3ccc(C#N)c(C(F)(F)F)c3)C(=O)C2(C)C)cc1 [EM-8101],43%,41%,8%,12.1%,18.2 nM,,,,,,
CC1(C)C(=O)N(c2ccc(C#N)c(C(F)(F)F)c2)C(=S)N1CCCOc1ccc(S(=O)(=O)N2CCCC2)cc1 [EM-8103],16%,37%,18%,29.3%,41.5 nM,,,,,,
N#Cc1ccc(N2CCC(O)(CCOc3ccc(S(=O)(=O)N4CCCC4)cc3)CC2)cc1C(F)(F)F [EM-8130],,,,,,8%,15%,20%,4.5%,28.3 nM,
CC(C)S(=O)(=O)c1ccc(OCCCN2C(=S)N(c3ccc(C#N)c(C(F)(F)F)c3)C(=O)C2(C)C)cc1 [EM-8131],47%,84%,47%,9.3%,9.1 nM,,,,,,
CC(C)Sc1ccc(OCCCN2C(=S)N(c3ccc(C#N)c(C(F)(F)F)c3)C(=O)C2(C)C)cc1 [EM-8132],67%,86%,47%,1.0%,24 nM,,,,,,
CC1(C)C(=O)N(c2ccc(C#N)c(C(F)(F)F)c2)C(=S)N1CCCOc1ccc2c(c1)OCC2=O [EM-8154],41%,42%,11%,72.4%,17.1 nM,,,,,,
CC1(C)C(=O)N(c2ccc(C#N)c(C(F)(F)F)c2)C(=S)N1CCCOc1ccc(C(N)=O)cc1 [EM-8156],47%,65%,32%,17.5%,7.9 nM,,,,,,
COC1(CCOc2ccc(CN3CCCC3)cc2C)CCN(c2ccc(C#N)c(C(F)(F)F)c2)CC1 [EM-8157],,,,,,28%,25%,56%,<1.0%,54.3 nM,
CC1(C)C(=O)N(c2ccc(C#N)c(C(F)(F)F)c2)C(=S)N1CCCOc1ccc2oc(=O)ccc2c1 [EM-8158],32%,70%,38%,88.8%,3.5 nM,,,,,,
CS(=O)(=O)c1ccc(OCCC2(O)CCN(c3ccc(C#N)c(C(F)(F)F)c3)CC2)cc1 [EM-8159],,,,,,23%,24%,51%,<1.0%,33.4 nM,
CCS(=O)(=O)c1ccc(OCCCN2C(=S)N(c3ccc(C#N)c(C(F)(F)F)c3)C(=O)C2(C)C)cc1 [EM-8188],68%,85%,45%,15.6%,13.9 nM,,,,,,
CCCS(=O)(=O)c1ccc(OCCCN2C(=S)N(c3ccc(C#N)c(C(F)(F)F)c3)C(=O)C2(C)C)cc1 [EM-8225],53%,79%,45%,25.8%,22.4 nM,,,,,,
CC(C)S(=O)(=O)c1ccc(OCCC2(O)CCN(c3ccc(C#N)c(C(F)(F)F)c3)CC2)cc1 [EM-8228],,,,,,55%,32%,0%,<1.0%,45.1 nM,
CCCS(=O)(=O)c1ccc(OCCC2(O)CCN(c3ccc(C#N)c(C(F)(F)F)c3)CC2)cc1 [EM-8229],,,,,,16%,3%,19%,<1.0%,49.8 nM,
CCS(=O)(=O)c1ccc(OCCC2(O)CCN(c3ccc(C#N)c(C(F)(F)F)c3)CC2)cc1 [EM-8230],,,,,,35%,0%,23%,<1.0%,75.9 nM,
Cc1cc(=O)oc2ccc(OCCCN3C(=S)N(c4ccc(C#N)c(C(F)(F)F)c4)C(=O)C3(C)C)cc12 [EM-8259],53%,53%,31%,39.6%,13.6 nM,,,,,,
N#Cc1ccc(N2CCC(O)(CCOc3ccc4oc(=O)ccc4c3)CC2)cc1C(F)(F)F [EM-8284],,,,,,21%,0%,0%,<1.0%,12.8 nM,
Cc1cc(=O)oc2ccc(OCCC3(O)CCN(c4ccc(C#N)c(C(F)(F)F)c4)CC3)cc12 [EM-8285],,,,,,0%,0%,0%,<1.0%,18.3 nM,
Cc1cc(=O)oc2cc(OCCCN3C(=S)N(c4ccc(C#N)c(C(F)(F)F)c4)C(=O)C3(C)C)ccc12 [EM-8329],17%,58%,42%,170.0%,9.1 nM,,,,,,
CC1(C)C(=O)N(c2ccc(C#N)c(C(F)(F)F)c2)C(=S)N1CCCOc1ccc(SC(F)(F)F)cc1 [EM-8342],53%,79%,43%,0.5%,66.7 nM,,,,,,
CC1(C)C(=O)N(c2ccc(C#N)c(C(F)(F)F)c2)C(=S)N1CCCOc1ccc(CN2CCSCC2)cc1 [EM-8344],51%,77%,50%,161.6%,12.6 nM,,,,,,
CC1(C)C(=O)N(c2ccc(C#N)c(Cl)c2)C(=S)N1CCCOc1ccc(S(C)(=O)=O)cc1 [EM-8360],82%,88%,56%,18.1%,7.1 nM,,,,,,
Cc1cc2c(C)c(C)c(=O)oc2cc1OCCCN1C(=S)N(c2ccc(C#N)c(C(F)(F)F)c2)C(=O)C1(C)C [EM-8385],20%,41%,17%,50.5%,,,,,,,Partial agonist
CC1(C)C(=O)N(c2ccc(C#N)c(C(F)(F)F)c2)C(=S)N1CCCOc1ccc2c(C(F)(F)F)cc(=O)oc2c1 [EM-8393],35%,60%,3%,7.7%,44.5 nM,,,,,,
